Reference: patent US20160251612A1, “CULTURE MEDIUM FOR ESTABLISHING NEUROEPITHELIAL STEM CELLS, METHOD FOR ESTABLISHING NEUROEPITHELIAL STEM CELLS, AND APPLICATIONS THEREOF” (YUNNAN KEY LAB OF PRIMATE BIOMEDICINE RESEARCH, priority 2014, published 2016)

Legend:
[1] = system: single neuroepithelial stem cells; assay: single cell culture tests: single neuroepithelial stem cell to neural tubes, one ingredient removed from the culture medium or inhibitor added; assay type: cell-based; conditions: for ability of the cells to form neural tubes: ingredient removed from the proliferation culture medium; for ability of the cells to form neural tubes / cell proliferation ability: single cell culture; for cell proliferation ability: ingredient removed alone from the proliferation culture medium
Source text: Additionally, a neuroepithelial stem cell can self-organize into the neural tube structures. Preferably, the operation may be performed as follows: neuroepithelial stem cells cultured for long term are digested into single cells, limitedly diluted, and cultured on wells of a 96-well plate coated with laminin, one cell per well, in the above proliferation culture medium; the liquid is changed every 2-3 days, and the single neuroepithelial stem cells self-organize into a series of neural tube structures at the 14-15th day. These neural tube structures derived from single cells express Sox2, Nestin, Pax6, ZO-1 and N-cadherin.
In addition, in the present embodiment, in order to detect which factors in the whole culture system are essential and necessary for the growth and generation of the neural tubes, it is possible to use the characteristic of the single cell forming the neural tube structure and to perform a series of single cell culture tests where one ingredient is removed from the culture medium every time to estimate which ingredients are essential for self-renewal of the neuroepithelial stem cells and formation of the neural tube.
SU5402 is an inhibitor of the FGF receptor. What the arrow points to is the miniature neural tube structure derived from the single neuroepithelial stem cell in the neuroepithelial stem cell proliferation culture medium containing SU5402.

[2] = system: single neuroepithelial stem cell; assay: modeling neural tube defect disease by the single neuroepithelial stem cell to neural tubes assay (folic acid); assay type: cell-based; conditions: FIG. 5 (C)

| Molecule | ability of the cells to form neural tubes [1] | cell proliferation ability [1] | other results |
| --- | --- | --- | --- |
| Cc1c[nH]c(-c2cnc(NCCNc3ccc(C#N)cn3)nc2-c2ccc(Cl)cc2Cl)n1.Cl [CHIR99021, reference compound] | no cell could produce the neural tube structure |  |  |
| NC(=O)c1ccc(-c2nc(-c3ccc4c(c3)OCO4)c(-c3ccccn3)[nH]2)cc1 [SB431542, reference compound] | does not affect the ability of the cells to form neural tubes |  |  |
| Cc1c[nH]c(/C=C2\C(=O)Nc3ccccc32)c1CCC(=O)O [SU5402, reference compound] |  |  | ability to produce neural tubes ([1]; SU5402 used to inhibit FGFR signaling pathway in proliferation culture medium): all cells lose the ability to produce neural tubes |
| Nc1nc2ncc(CNc3ccc(C(=O)N[C@@H](CCC(=O)O)C(=O)O)cc3)nc2c(=O)[nH]1 [folic acid] |  |  | colony apoptosis versus concentration of the folic acid [2]: in negative correlation with colony apoptosis; neural tube formation versus concentration of the folic acid [2]: in positive correlation with the neural tube formation |
| Leukemia Inhibitory Factor: regulates cell proliferation and differentiation; ingredient of the proliferation culture medium | significant decrease | significant decrease | continuous production of neural tube structures ([1]; secondary clone assays): necessary for cells to continuously produce neural tube structures |
| bFGF: growth factor; promotes early-stage differentiation and proliferation of neural stem cells | significant decrease | significant decrease |  |
